Reference: patent US12305171B2, “Compositions and methods for treating cancer” (bioAffinity Technologies, Inc., priority 2018, dated 2025)
Like-named read-outs stand apart in the source and are kept apart here.

Assays:
GM05659 fibroblasts = test: lentiviral shRNA knockdown of CD320 and LRP2, cell growth observation; assay type: cell-based; parameters: key: +++: cells unaffected compared to shSCR (control); ++: cells modestly affected compared to shSCR (control); +: cells significantly affected compared to shSCR (control); 0: vast majority of cells killed compared to shSCR (control); conditions: GM05659, normal cells
Text: (§1) Mechanistic investigations into the selectivity of porphyrin uptake by cancer cells led to several nonobvious compounds and methods of using the compound(s). It was discovered that the knockdown of the expression of either CD320 gene or LRP2 gene or the simultaneous knockdown of the expression of CD320 gene and LRP2 gene caused cell death or inhibition of cell growth in a panel of lung cancer cell lines, compared to normal fibroblasts. The experimental outline is illustrated in FIG. 1. In these experiments, cells were plated on day 0. The next day (day 1), virus particles encoding short hairpin RNAs (shRNAs) directed to the CD320 gene and the LRP2 gene or an irrelevant shRNA control were added to the cell culture together with protamine sulfate, a reagent that facilitates cell entry of the virus particles.
(§2) FIG. 1 illustrates an experimental design for knocking down CD320 and LRP2 in a cell. Cells were plated on day 0. The next day (day 1), virus particles encoding short hairpin RNAs (shRNAs) directed at the CD320 and LRP2 mRNA or a non-targeting shRNA control were added to the cell culture together with protamine sulfate, a reagent that facilitates cell entry of the virus particles. […] Each shRNA coding sequence was also combined with a unique drug resistance gene, which would allow for selecting those cells that had taken up the shRNA; cells that had not taken up the shRNA would not survive. On day 2, drug selection was started. On day 3, the cells were harvested and plated in a new dish. Only the cells with a drug resistance gene, i.e., those cells that had taken up shRNA virus particles would survive this re-plating procedure. From day 4 on, each culture was closely observed for cell growth. Cells infected with the non-targeting negative control shRNA continued growing—data not shown.
FIGS. 2 A-C illustrates sensitivity of cancer cell lines to knockdown of CD320 and LRP2. […] The fields of cells in FIG. 2A were counted and quantified and illustrated in FIG. 2B. […]

A172 = test: as above; assay type: cell-based; parameters: key: +++: cells unaffected compared to shSCR (control); ++: cells modestly affected compared to shSCR (control); +: cells significantly affected compared to shSCR (control); 0: vast majority of cells killed compared to shSCR (control); conditions: A172, glioblastoma
Text: as §1, §2
(§3) The Each vector that carried a shRNA coding sequence also contained a unique drug resistance gene which would allow for selecting those cells that had taken up the shRNA as those cells that had not taken up the shRNA having the unique drug resistance gene would not survive. On day 2, drug selection was started. On day 3, the cells were harvested and plated in a new dish. Only the cells with a drug resistance gene, i.e., those cells that had taken up shRNA virus particles would survive this re-plating procedure. From day 4 on, each culture was closely observed for cell growth. The cells that were infected with the irrelevant control shRNA kept on growing as expected (since the shRNA was essentially a non-functional shRNA)—data not shown.
(§4) Additional cancer cell lines were also treated with the compounds described herein to determine whether cancer cell lines were more susceptible to growth inhibition and toxicity as compared to non-cancer cells of the same origin. Cell lines from skin, prostate, and brain cancers were screened similarly to the experimental outline in FIG. 1. Table 3 summarizes the effects of simultaneous knockdown of CD320 and LRP2 in cancer and normal cells.

DU-145 = test: as above; assay type: cell-based; parameters: key: +++: cells unaffected compared to shSCR (control); ++: cells modestly affected compared to shSCR (control); +: cells significantly affected compared to shSCR (control); 0: vast majority of cells killed compared to shSCR (control); conditions: DU-145, prostate cells
Text: as §1, §2, §3, §4

GM00701 = test: as above; assay type: cell-based; parameters: key: +++: cells unaffected compared to shSCR (control); ++: cells modestly affected compared to shSCR (control); +: cells significantly affected compared to shSCR (control); 0: vast majority of cells killed compared to shSCR (control); conditions: GM00701, normal cells
Text: as §1, §2, §3, §4

H157 = test: as above; assay type: cell-based; parameters: key: +++: cells unaffected compared to shSCR (control); ++: cells modestly affected compared to shSCR (control); +: cells significantly affected compared to shSCR (control); 0: vast majority of cells killed compared to shSCR (control); conditions: H157, lung cells
Text: as §1, §2, §3, §4

H1993 = test: as above; assay type: cell-based; parameters: key: +++: cells unaffected compared to shSCR (control); ++: cells modestly affected compared to shSCR (control); +: cells significantly affected compared to shSCR (control); 0: vast majority of cells killed compared to shSCR (control); conditions: H1993, lung cells
Text: as §1, §2, §3, §4

H358 = test: as above; assay type: cell-based; parameters: key: +++: cells unaffected compared to shSCR (control); ++: cells modestly affected compared to shSCR (control); +: cells significantly affected compared to shSCR (control); 0: vast majority of cells killed compared to shSCR (control); conditions: H358, lung cells
Text: as §1, §2, §3, §4

HCC15 = test: as above; assay type: cell-based; parameters: key: +++: cells unaffected compared to shSCR (control); ++: cells modestly affected compared to shSCR (control); +: cells significantly affected compared to shSCR (control); 0: vast majority of cells killed compared to shSCR (control); conditions: HCC15, lung cells
Text: as §1, §2, §3, §4

LncAP = test: as above; assay type: cell-based; parameters: key: +++: cells unaffected compared to shSCR (control); ++: cells modestly affected compared to shSCR (control); +: cells significantly affected compared to shSCR (control); 0: vast majority of cells killed compared to shSCR (control); conditions: prostate cells
Text: as §1, §2, §3, §4

MDA-MB-4353 = test: as above; assay type: cell-based; parameters: key: +++: cells unaffected compared to shSCR (control); ++: cells modestly affected compared to shSCR (control); +: cells significantly affected compared to shSCR (control); 0: vast majority of cells killed compared to shSCR (control); conditions: MDA-MB-4353, melanoma cells
Text: as §1, §2, §3, §4

PC3 = test: as above; assay type: cell-based; parameters: key: +++: cells unaffected compared to shSCR (control); ++: cells modestly affected compared to shSCR (control); +: cells significantly affected compared to shSCR (control); 0: vast majority of cells killed compared to shSCR (control); conditions: PC3, prostate cells
Text: as §1, §2, §3, §4

T98G = test: as above; assay type: cell-based; parameters: key: +++: cells unaffected compared to shSCR (control); ++: cells modestly affected compared to shSCR (control); +: cells significantly affected compared to shSCR (control); 0: vast majority of cells killed compared to shSCR (control); conditions: glioblastoma
Text: as §1, §2, §3, §4

U251MG = test: as above; assay type: cell-based; parameters: key: +++: cells unaffected compared to shSCR (control); ++: cells modestly affected compared to shSCR (control); +: cells significantly affected compared to shSCR (control); 0: vast majority of cells killed compared to shSCR (control); conditions: glioblastoma
Text: as §1, §2, §3, §4

U343 = test: as above; assay type: cell-based; parameters: key: +++: cells unaffected compared to shSCR (control); ++: cells modestly affected compared to shSCR (control); +: cells significantly affected compared to shSCR (control); 0: vast majority of cells killed compared to shSCR (control); conditions: U343, glioblastoma
Text: as §1, §2, §3, §4

[1] = cited from earlier work

| Molecule | cells affected compared to shSCR (control) (GM05659 fibroblasts) | cells affected compared to shSCR (control) (A172) | cells affected compared to shSCR (control) (DU-145) | cells affected compared to shSCR (control) (GM00701) | cells affected compared to shSCR (control) (H157) | cells affected compared to shSCR (control) (H1993) | cells affected compared to shSCR (control) (H358) | cells affected compared to shSCR (control) (HCC15) | cells affected compared to shSCR (control) (LncAP) | cells affected compared to shSCR (control) (MDA-MB-4353) | cells affected compared to shSCR (control) (PC3) | cells affected compared to shSCR (control) (T98G) | cells affected compared to shSCR (control) (U251MG) | cells affected compared to shSCR (control) (U343) | plasma half-life ([1]; in vivo) | plasma half-life ([1]; desialylated, less abundant form) | plasma half-life ([1]; sialylated, most abundant form) |
| --- | --- | --- | --- | --- | --- | --- | --- | --- | --- | --- | --- | --- | --- | --- | --- | --- | --- |
| shCD320: lentiviral shRNA targeting CD320 (NM_016579.3), location 1006-1026; SEQ ID NO. 943/944 (sense CCCTCAGAGACCTGAGCTCTT; antisense AAGAGCTCAGGTCTCTGAGGG) [lentiviral shRNA targeting CD320 (NM_016579.3), location 1006-1026; 943/944] | +++ | + | ++ | ++ | + | ++ | ++ | + | ++ | ++ | +++ | +++ | + | +++ | – | – | – |
| shSCR: non-targeting control shRNA in lentiviral vector; SEQ ID NO. 941/942 [reference compound] | +++ | +++ | +++ | +++ | +++ | +++ | +++ | +++ | +++ | +++ | +++ | +++ | +++ | +++ | – | – | – |
| shLRP2: lentiviral shRNA targeting LRP2 (NM_004525.2), location 2800-2820; SEQ ID NO. 945/946 (sense CCTGTAATAAACACTACTCTT; antisense AAGAGTAGTGTTTATTACAGG) [lentiviral shRNA targeting LRP2 (NM_004525.2), location 2800-2820; 945/946] | +++ | + | + | +++ | ++ | ++ | ++ | + | ++ | + | ++ | ++ | ++ | ++ | – | – | – |
| TCN2-Cbl: complex of transcobalamin 2 (TCN2) with cobalamin (vitamin B12) (protein, UniProt P20062 19-427, looked up, complexed with cobalamin) Transcobalamin-2: EMCEIPEMDSHLVEKLGQHLLPWMDRLSLEHLNPSIYVGLRLSSLQAGTKEDLYLHSLKLGYQQCLLGSAFSEDDGDCQGKPSMGQLALYLLALRANCEFVRGHKGDRLVSQLKWFLEDEKRAIGHDHKGHPHTSYYQYGLGILALCLHQKRVHDSVVDKLLYAVEPFHQGHHSVDTAAMAGLAFTCLKRSNFNPGRRQRITMAIRTVREEILKAQTPEGHFGNVYSTPLALQFLMTSPMRGAELGTACLKARVALLASLQDGAFQNALMISQLLPVLNHKTYIDLIFPDCLAPRVMLEPAAETIPQTQEIISVTLQVLSLLPPYRQSISVLAGSTVEDVLKKAHELGGFTYETQASLSGPYLTSVMGKAAGEREFWQLLRDPNTPLLQGIADYRPKDGETIELRLVSW | – | – | – | – | – | – | – | – | – | – | – | – | – | – | 1 to 15 h | – | – |
| TCN1: plasma glycoprotein chaperone of cobalamin, sialylated and desialylated forms (protein, UniProt P20061 24-433, looked up) Transcobalamin-1: EICEVSEENYIRLKPLLNTMIQSNYNRGTSAVNVVLSLKLVGIQIQTLMQKMIQQIKYNVKSRLSDVSSGELALIILALGVCRNAEENLIYDYHLIDKLENKFQAEIENMEAHNGTPLTNYYQLSLDVLALCLFNGNYSTAEVVNHFTPENKNYYFGSQFSVDTGAMAVLALTCVKKSLINGQIKADEGSLKNISIYTKSLVEKILSEKKENGLIGNTFSTGEAMQALFVSSDYYNENDWNCQQTLNTVLTEISQGAFSNPNAAAQVLPALMGKTFLDINKDSSCVSASGNFNISADEPITVTPPDSQSYISVNYSVRINETYFTNVTVLNGSVFLSVMEKAQKMNDTIFGFTMEERSWGPYITCIQGLCANNNDRTYWELLSGGEPLSQGAGSYVVRNGENLEVRWSKY | – | – | – | – | – | – | – | – | – | – | – | – | – | – | – | a few minutes | about 10 days |
